Measurements as given in PubChem BioAssay (NCI).
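Exposure lasted 48 hours, with cells grown in 96-well plates and compounds tested at five concentrations. The concentration for 50% growth inhibition is given as GI50. The concentration for full growth arrest is given as TGI.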

Tests used:
Experiment in all cases: growth of human tumour cells (NCI), 48 h; in the data active = GI50 below about 0.43 µM; inactive = the rest
[1] = system: OVCAR-3 ovarian
[2] = system: SNB-19 CNS
[3] = system: KM12 colon
[4] = system: SW-620 colon
[5] = system: 786-0 renal
[6] = system: HCT-116 colon
[7] = system: HL-60(TB) leukemia
[8] = system: SF-539 CNS
[9] = system: SK-OV-3 ovarian
[10] = system: SK-MEL-5 melanoma
[11] = system: HCC-2998 colon
[12] = system: NCI-H23 lung
[13] = system: M14 melanoma
[14] = system: HS 578T breast
[15] = system: OVCAR-4 ovarian
[16] = system: SN12C renal
[17] = system: MDA-MB-231 breast
[18] = system: SK-MEL-2 melanoma
[19] = system: TK-10 renal
[20] = system: NCI/ADR-RES ovarian
[21] = system: OVCAR-5 ovarian
[22] = system: EKVX NSCLC
[23] = system: A498 renal
[24] = system: SK-MEL-28 melanoma
[25] = system: SF-295 CNS
[26] = system: A549 NSCLC
[27] = system: HCT-15 colon
[28] = system: CCRF-CEM leukemia
[29] = system: HOP-62 NSCLC
[30] = system: COLO 205 colon
[31] = system: CAKI-1 renal
[32] = system: HOP-92 NSCLC
[33] = system: LOX IMVI melanoma
[34] = system: MOLT-4 leukemia
[35] = system: NCI-H226 lung
[36] = system: UO-31 renal
[37] = system: OVCAR-8 ovarian
[38] = system: MCF7 breast
[39] = system: RPMI-8226 leukemia
[40] = system: NCI-H522 lung
[41] = system: BT-549 breast
[42] = system: SF-268 CNS
[43] = system: K-562 leukemia
[44] = system: HT29 colon
[45] = system: U251 CNS
[46] = system: PC-3 prostate
[47] = system: DU-145 prostate
[48] = system: IGROV1 ovarian
[49] = system: RXF 393 renal
[50] = system: UACC-62 melanoma
[51] = system: NCI-H460 lung
[52] = system: ACHN renal

C#CCOc1c(OC)cc(C(=O)/C(C)=C/c2cccc(N=[N+]=[N-])c2)cc1OC
38900 nM: TGI [19]
714 nM: TGI [23]
> 100000 nM: TGI [2] | TGI [3] | TGI [4] | TGI [5] | TGI [9] | TGI [11] | TGI [12] | TGI [13] | TGI [14] | TGI [15] | TGI [16] | TGI [18] | TGI [20] | TGI [21] | TGI [22] | TGI [24] | TGI [25] | TGI [26] | TGI [27] | TGI [28] | TGI [29] | TGI [31] | TGI [33] | TGI [34] | TGI [35] | TGI [36] | TGI [37] | TGI [38] | TGI [39] | TGI [42] | TGI [43] | TGI [45] | TGI [46] | TGI [47] | TGI [48] | TGI [49] | TGI [50] | TGI [52]
20200 nM: TGI [51]
26100 nM: TGI [17]
active: GI50 [1] 51.9 nM | GI50 [2] 333 nM | GI50 [3] 84.5 nM | GI50 [4] 50.3 nM | GI50 [5] 180 nM | GI50 [6] 46.8 nM | GI50 [7] 41.1 nM | GI50 [8] 130 nM | GI50 [10] 288 nM | GI50 [13] 178 nM | GI50 [14] 250 nM | GI50 [19] 325 nM | GI50 [20] 119 nM | GI50 [23] 151 nM | GI50 [25] 122 nM | GI50 [26] 406 nM | GI50 [27] 49.9 nM | GI50 [28] 117 nM | GI50 [29] 214 nM | GI50 [30] 300 nM | GI50 [31] 247 nM | GI50 [32] 196 nM | GI50 [34] 362 nM | GI50 [38] 44.7 nM | GI50 [39] 255 nM | GI50 [40] 155 nM | GI50 [41] 131 nM | GI50 [43] 38.3 nM | GI50 [44] 57.6 nM | GI50 [45] 79.3 nM | GI50 [46] 132 nM | GI50 [47] 296 nM | GI50 [49] 250 nM | GI50 [50] 253 nM | GI50 [51] 329 nM
7100 nM: TGI [41]
478 nM: TGI [8]
800 nM: TGI [40]
2980 nM: TGI [30]
73400 nM: TGI [44]
291 nM: TGI [1]
10800 nM: TGI [6]
9110 nM: TGI [32]
inactive: GI50 [9] 674 nM | GI50 [11] 464 nM | GI50 [12] 632 nM | GI50 [15] 1190 nM | GI50 [16] 677 nM | GI50 [17] 695 nM | GI50 [18] 725 nM | GI50 [21] 1230 nM | GI50 [22] 517 nM | GI50 [24] 29000 nM | GI50 [33] 642 nM | GI50 [35] 15000 nM | GI50 [36] 751 nM | GI50 [37] 427 nM | GI50 [42] 637 nM | GI50 [48] 766 nM | GI50 [52] 682 nM
54300 nM: TGI [10]
481 nM: TGI [7]
